Results from ChEMBL document CHEMBL1201862, “PubChem BioAssay data set” (2004).
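Growth conditions: 96-well plates. Treatment: test compound, 48 hours, 5 concentrations. Analysis: linear interpolation between bracketing concentrations; unreached endpoints set to highest concentration. GI50 marks 50% less growth.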 Activity calls are given as the source filed them. Rule as the data show it: active = GI50 up to about 1.1 µM and inactive = higher.

How the values were obtained:
Test in all cases: growth of human tumour cells (NCI), 48 h
M19-MEL = tested on: M19-MEL
XF498 = tested on: XF498
HOP-18 = tested on: HOP-18
LXFL 529 = tested on: LXFL 529
DMS-273 = tested on: DMS-273
DMS-114 = tested on: DMS-114
RXF 631 = tested on: RXF 631
DLD-1 = tested on: DLD-1
SNB-78 = tested on: SNB-78

Measured: GI50

N#CCCN(c1ccc(-c2nnc(NC(=O)CNNC(=O)CC(=O)Nc3ccccc3)s2)cc1)S(=O)(=O)c1ccccc1
inactive: M19-MEL > 100 µM | XF498 > 100 µM | HOP-18 > 100 µM | LXFL 529 89.9 µM | DMS-273 > 100 µM | DMS-114 55.8 µM | RXF 631 > 100 µM | DLD-1 > 100 µM

Cc1cc(Br)cc(C)c1NC(=O)C(=O)C(C(=O)c1ccc2ccccc2c1)C1OC(=O)c2ccccc21 (stereo not drawn)
inactive: M19-MEL 12.4 µM | XF498 1.14 µM | HOP-18 21.7 µM | LXFL 529 7.93 µM | DMS-273 11 µM | SNB-78 > 10 µM | DMS-114 7.78 µM | RXF 631 16.4 µM | DLD-1 13 µM

CCOP(=O)(C/C(=N/NC(C)(C)C)C(=O)Nc1nc2ccc(C)cc2s1)OCC
inactive: M19-MEL > 100 µM | XF498 > 100 µM | HOP-18 > 100 µM | LXFL 529 > 100 µM | DMS-273 > 100 µM | SNB-78 > 100 µM | DMS-114 > 100 µM | RXF 631 > 100 µM

Cc1ccc(SSCCCS(=O)O)cc1
inactive: M19-MEL 31.8 µM | XF498 > 100 µM | HOP-18 > 100 µM | LXFL 529 27.7 µM | DMS-273 24.5 µM | DMS-114 15.9 µM | RXF 631 20.4 µM | DLD-1 45.8 µM
